System: MV-4-11 cells
Assay: Gene expression microarray analysis (Affymetrix PrimeView) and GSEA
Assay type: cell-based, human
Parameters: RFU PODN (11730768_x_at) / Fold change /veh PODN (11730768_x_at) / RFU LINC00158 (11744669_a_at) / Fold change /veh LINC00158 (11744669_a_at) / RFU DUSP10 (11751237_a_at) / Fold change /veh DUSP10 (11751237_a_at) / RFU ID3 (11757404_x_at) / Fold change /veh ID3 (11757404_x_at) / RFU PLEKHG5 (11737974_s_at) / Fold change /veh PLEKHG5 (11737974_s_at) / RFU LRRC4B (11730491_at) / Fold change /veh LRRC4B (11730491_at) / RFU GIMAP4 (11747438_a_at) / Fold change /veh GIMAP4 (11747438_a_at) / RFU KRT8 (11758183_x_at) / Fold change /veh KRT8 (11758183_x_at) / RFU CNN1 (11734310_a_at) / Fold change /veh CNN1 (11734310_a_at) / RFU VPS37D (11726825_at) / Fold change /veh VPS37D (11726825_at) / RFU C10orf10 (11716522_x_at) / Fold change /veh C10orf10 (11716522_x_at) / RFU KIR2DL2 /// KIR2DL4 /// KIR2DL5A /// KIR2DL5B /// KIR2DS1 /// KIR2DS2 /// KIR2DS3 /// KIR2DS4 /// KIR3DL3 /// KIR3DL3 /// KIR3DS1 (11738374_at) / Fold change /veh KIR2DL2 /// KIR2DL4 /// KIR2DL5A /// KIR2DL5B /// KIR2DS1 /// KIR2DS2 /// KIR2DS3 /// KIR2DS4 /// KIR3DL3 /// KIR3DL3 /// KIR3DS1 (11738374_at) / RFU C1QL1 (11718748_at) / Fold change /veh C1QL1 (11718748_at) / RFU TMPRSS4 (11747572_a_at) / Fold change /veh TMPRSS4 (11747572_a_at) / RFU HAMP (11756126_x_at) / Fold change /veh HAMP (11756126_x_at) / RFU RNFT2 (11725882_a_at) / Fold change /veh RNFT2 (11725882_a_at) / RFU NR4A2 (11747474_a_at) / Fold change /veh NR4A2 (11747474_a_at) / RFU ABCC12 (11746883_a_at) / Fold change /veh ABCC12 (11746883_a_at) / RFU TMEM136 (11760407_x_at) / Fold change /veh TMEM136 (11760407_x_at) / RFU CLDN22 /// WWC2 (11732394_at) / Fold change /veh CLDN22 /// WWC2 (11732394_at) / RFU HLA-DPB1 (11760878_x_at) / Fold change /veh HLA-DPB1 (11760878_x_at) / RFU SPINT1 (11716480_a_at) / Fold change /veh SPINT1 (11716480_a_at) / RFU GAP43 (11754022_s_at) / Fold change /veh GAP43 (11754022_s_at) / RFU A4GNT (11735810_at) / Fold change /veh A4GNT (11735810_at) / RFU PRB3 (11715151_x_at) / Fold change /veh PRB3 (11715151_x_at) / RFU TUBB4B (11761932_at) / Fold change /veh TUBB4B (11761932_at) / RFU CAPN14 (11732068_a_at) / Fold change /veh CAPN14 (11732068_a_at) / RFU TMCC2 (11721928_a_at) / Fold change /veh TMCC2 (11721928_a_at) / RFU IRGQ (11745062_a_at) / Fold change /veh IRGQ (11745062_a_at) / RFU FAM174B (11720279_a_at) / Fold change /veh FAM174B (11720279_a_at) / RFU TMPRSS4 (11748680_a_at) / Fold change /veh TMPRSS4 (11748680_a_at) / RFU FAM212B (11763350_a_at) / Fold change /veh FAM212B (11763350_a_at) / RFU PLEKHG5 (11743358_a_at) / Fold change /veh PLEKHG5 (11743358_a_at) / RFU ZSCAN30 (11745921_a_at) / Fold change /veh ZSCAN30 (11745921_a_at) / RFU CMKLR1 (11741424_a_at) / Fold change /veh CMKLR1 (11741424_a_at) / RFU LOC101060620 /// MAPK8IP1 (11723275_at) / Fold change /veh LOC101060620 /// MAPK8IP1 (11723275_at) / RFU SPTSSB (11747773_x_at) / Fold change /veh SPTSSB (11747773_x_at) / RFU PRSS12 (11739890_at) / Fold change /veh PRSS12 (11739890_at) / RFU BIN1 (11741810_x_at) / Fold change /veh BIN1 (11741810_x_at) / RFU WNT11 (11732464_a_at) / Fold change /veh WNT11 (11732464_a_at) / RFU C10orf10 (11716521_a_at) / Fold change /veh C10orf10 (11716521_a_at) / RFU C5orf56 (11738089_at) / Fold change /veh C5orf56 (11738089_at) / RFU CYB561 (11721691_x_at) / Fold change /veh CYB561 (11721691_x_at) / RFU ANKRD19P (11752326_a_at) / Fold change /veh ANKRD19P (11752326_a_at) / RFU OR2T12 /// OR2T33 /// OR2T8 (11738714_s_at) / Fold change /veh OR2T12 /// OR2T33 /// OR2T8 (11738714_s_at) / RFU VCAN (11748164_a_at) / Fold change /veh VCAN (11748164_a_at) / RFU JSRP1 (11732532_at) / Fold change /veh JSRP1 (11732532_at) / RFU KRTAP10-11 (11738290_x_at) / Fold change /veh KRTAP10-11 (11738290_x_at) / RFU MYO3A (11730013_a_at) / Fold change /veh MYO3A (11730013_a_at) / RFU EBF3 (11725865_a_at) / Fold change /veh EBF3 (11725865_a_at) / RFU CAMK2N1 (11719241_x_at) / Fold change /veh CAMK2N1 (11719241_x_at) / RFU C5orf56 (11738088_a_at) / Fold change /veh C5orf56 (11738088_a_at) / RFU OLFML3 (11715873_a_at) / Fold change /veh OLFML3 (11715873_a_at) / RFU LOC100653217 /// NTM (11731650_a_at) / Fold change /veh LOC100653217 /// NTM (11731650_a_at) / RFU MAPK11 (11762145_a_at) / Fold change /veh MAPK11 (11762145_a_at) / RFU FIZ1 (11724087_x_at) / Fold change /veh FIZ1 (11724087_x_at) / RFU OASL (11726364_x_at) / Fold change /veh OASL (11726364_x_at) / RFU SOX15 (11748057_x_at) / Fold change /veh SOX15 (11748057_x_at) / RFU CD79A (11719716_a_at) / Fold change /veh CD79A (11719716_a_at) / RFU HIST1H1D (11736915_at) / Fold change /veh HIST1H1D (11736915_at) / RFU CASKIN2 (11723855_a_at) / Fold change /veh CASKIN2 (11723855_a_at) / RFU LOC730098 (11760151_x_at) / Fold change /veh LOC730098 (11760151_x_at) / RFU OR4N2 (11742367_at) / Fold change /veh OR4N2 (11742367_at) / RFU PRRT2 (11749266_a_at) / Fold change /veh PRRT2 (11749266_a_at) / RFU SNX32 (11753110_a_at) / Fold change /veh SNX32 (11753110_a_at) / RFU CDHR5 (11726645_a_at) / Fold change /veh CDHR5 (11726645_a_at) / RFU RCAN1 (11760418_a_at) / Fold change /veh RCAN1 (11760418_a_at) / RFU FAM167A (11723789_a_at) / Fold change /veh FAM167A (11723789_a_at) / RFU FAM26E (11764081_at) / Fold change /veh FAM26E (11764081_at) / RFU ISYNA1 (11749810_s_at) / Fold change /veh ISYNA1 (11749810_s_at) / RFU ACY1 (11761880_at) / Fold change /veh ACY1 (11761880_at) / RFU 11764098_at / Fold change /veh 11764098_at / RFU SAMD14 (11745864_x_at) / Fold change /veh SAMD14 (11745864_x_at) / RFU NPB (11741838_a_at) / Fold change /veh NPB (11741838_a_at) / RFU TMPRSS6 (11731388_a_at) / Fold change /veh TMPRSS6 (11731388_a_at) / RFU KRTAP10-2 (11738614_at) / Fold change /veh KRTAP10-2 (11738614_at) / RFU ARHGAP8 /// PRR5-ARHGAP8 (11727945_x_at) / Fold change /veh ARHGAP8 /// PRR5-ARHGAP8 (11727945_x_at) / RFU KRTAP5-7 /// NADSYN1 (11734609_at) / Fold change /veh KRTAP5-7 /// NADSYN1 (11734609_at) / RFU RASL12 (11751679_a_at) / Fold change /veh RASL12 (11751679_a_at) / RFU CDKN2B (11736163_a_at) / Fold change /veh CDKN2B (11736163_a_at) / RFU PRF1 (11729649_at) / Fold change /veh PRF1 (11729649_at) / RFU, ZNF638 /// ZNF638-IT1 / Fold change vs veh, ZNF638 /// ZNF638-IT1 / RFU, PANK3 / Fold change vs veh, PANK3 / RFU, SH3YL1 / Fold change vs veh, SH3YL1 / RFU, ZEB2 / Fold change vs veh, ZEB2 / RFU, NRIP1 / Fold change vs veh, NRIP1 / RFU, PTTG1IP / Fold change vs veh, PTTG1IP / RFU, CAPN2 / Fold change vs veh, CAPN2 / RFU, MED14 / Fold change vs veh, MED14 / RFU, SNORA58 / Fold change vs veh, SNORA58 / RFU, C1orf63 / Fold change vs veh, C1orf63 / RFU, LRRFIP1 / Fold change vs veh, LRRFIP1 / RFU, NDUFAF7 / Fold change vs veh, NDUFAF7 / RFU, SLC12A2 / Fold change vs veh, SLC12A2 / RFU, IBTK / Fold change vs veh, IBTK / RFU, ESF1 / Fold change vs veh, ESF1 / Fold change vs veh, TMEM50B / RFU, TAOK1 / Fold change vs veh, TAOK1 / RFU, ACBD3 / Fold change vs veh, ACBD3 / RFU, TMA16 / Fold change vs veh, TMA16 / RFU, RWDD3 / Fold change vs veh, RWDD3 / RFU, BCAT1 / Fold change vs veh, BCAT1 / RFU, EDEM3 / Fold change vs veh, EDEM3 / RFU, TMEM33 / Fold change vs veh, TMEM33 / RFU, WDR75 / Fold change vs veh, WDR75 / RFU, AHCTF1 / Fold change vs veh, AHCTF1 / RFU, TFRC / Fold change vs veh, TFRC / RFU, ZDHHC17 / Fold change vs veh, ZDHHC17 / RFU, NOM1 / Fold change vs veh, NOM1 / RFU, ARL8B / Fold change vs veh, ARL8B / RFU, ZBTB11 / Fold change vs veh, ZBTB11 / RFU, TAMM41 / Fold change vs veh, TAMM41 / RFU, KIAA1704 /// LOC100996395 / Fold change vs veh, KIAA1704 /// LOC100996395 / RFU, ING1 / Fold change vs veh, ING1 / RFU, TRMT61B / Fold change vs veh, TRMT61B / RFU, FUBP3 / Fold change vs veh, FUBP3 / RFU, TP53 / Fold change vs veh, TP53 / RFU, TNKS2 / Fold change vs veh, TNKS2 / RFU, ZFP14 / Fold change vs veh, ZFP14 / RFU, ACTR2 / Fold change vs veh, ACTR2 / RFU, PPP3R1 / Fold change vs veh, PPP3R1 / RFU, PIK3R1 / Fold change vs veh, PIK3R1 / RFU, HNRNPA1 / Fold change vs veh, HNRNPA1 / RFU, RNF170 / Fold change vs veh, RNF170 / RFU, ZNF28 / Fold change vs veh, ZNF28 / RFU, RNGTT / Fold change vs veh, RNGTT / RFU, OGT / Fold change vs veh, OGT / RFU, BRD1 / Fold change vs veh, BRD1 / RFU, MARS / Fold change vs veh, MARS / RFU, ZNF655 / Fold change vs veh, ZNF655 / RFU, FAHD1 / Fold change vs veh, FAHD1 / RFU, BDP1 / Fold change vs veh, BDP1 / RFU, LRRCC1 / Fold change vs veh, LRRCC1 / RFU, ARID1A / Fold change vs veh, ARID1A / RFU, ZNF146 / Fold change vs veh, ZNF146 / RFU, ZNF330 / Fold change vs veh, ZNF330 / RFU, GPN3 / Fold change vs veh, GPN3 / RFU, C9orf123 / Fold change vs veh, C9orf123 / RFU, N4BP2L2 / Fold change vs veh, N4BP2L2 / RFU, ARFIP1 / Fold change vs veh, ARFIP1 / RFU, FAM179B / Fold change vs veh, FAM179B / RFU, BCL10 / Fold change vs veh, BCL10 / RFU, UHRF1BP1L / Fold change vs veh, UHRF1BP1L / RFU, BET1 / Fold change vs veh, BET1 / RFU, CNOT2 / Fold change vs veh, CNOT2 / RFU, ZNF268 / Fold change vs veh, ZNF268 / Fold change vs veh, ZNF507 / RFU, DGCR2 / Fold change vs veh, DGCR2 / RFU, WDSUB1 / Fold change vs veh, WDSUB1 / Fold change vs veh, HSP90B1 /// MIR3652 / RFU, ADSS / Fold change vs veh, ADSS / RFU, GK / Fold change vs veh, GK / RFU, ZNF148 / Fold change vs veh, ZNF148 / RFU, TAF9 / Fold change vs veh, TAF9 / RFU, SLC1A5 / Fold change vs veh, SLC1A5 / RFU, SLMO2 / Fold change vs veh, SLMO2 / RFU, ABCC4 / Fold change vs veh, ABCC4 / RFU, LOC101060439 /// RAP1B / Fold change vs veh, LOC101060439 /// RAP1B / RFU, RFX7 / Fold change vs veh, RFX7 / RFU, GTPBP10 / Fold change vs veh, GTPBP10 / RFU, CNEP1R1 / Fold change vs veh, CNEP1R1 / RFU, BIVM-ERCC5 /// ERCC5 / Fold change vs veh, BIVM-ERCC5 /// ERCC5 / RFU, ILF3 / Fold change vs veh, ILF3 / RFU 11762660_at / Fold change /veh 11762660_at / RFU VCAN (11757783_s_at) / Fold change /veh VCAN (11757783_s_at) / RFU DDX43 (11728927_at) / Fold change /veh DDX43 (11728927_at) / RFU KRT8 (11758188_x_at) / Fold change /veh KRT8 (11758188_x_at) / RFU NKD1 (11759106_at) / Fold change /veh NKD1 (11759106_at) / RFU SRD5A1 (11742802_a_at) / Fold change /veh SRD5A1 (11742802_a_at) / RFU TPSAB1 /// TPSB2 (11721975_s_at) / Fold change /veh TPSAB1 /// TPSB2 (11721975_s_at) / RFU GSTM3 (11746129_a_at) / Fold change /veh GSTM3 (11746129_a_at) / RFU IL23R (11737362_x_at) / Fold change /veh IL23R (11737362_x_at) / RFU TMEM51 (11727254_a_at) / Fold change /veh TMEM51 (11727254_a_at) / RFU PIWIL2 (11732686_x_at) / Fold change /veh PIWIL2 (11732686_x_at) / RFU ORM1 (11744905_x_at) / Fold change /veh ORM1 (11744905_x_at) / RFU CCDC152 (11743942_at) / Fold change /veh CCDC152 (11743942_at) / RFU ECM1 (11717891_a_at) / Fold change /veh ECM1 (11717891_a_at) / RFU IL23R (11748794_a_at) / Fold change /veh IL23R (11748794_a_at) / RFU TNFAIP8L3 (11732012_x_at) / Fold change /veh TNFAIP8L3 (11732012_x_at) / RFU MBOAT4 (11741988_at) / Fold change /veh MBOAT4 (11741988_at) / RFU 11764193_at / Fold change /veh 11764193_at / RFU TMEM53 (11763286_at) / Fold change /veh TMEM53 (11763286_at) / RFU MAGEB2 (11727129_at) / Fold change /veh MAGEB2 (11727129_at) / RFU TMEM200A (11744735_a_at) / Fold change /veh TMEM200A (11744735_a_at) / RFU CCDC152 (11751479_a_at) / Fold change /veh CCDC152 (11751479_a_at) / RFU FAM211A (11726209_a_at) / Fold change /veh FAM211A (11726209_a_at) / RFU RGS16 (11746705_a_at) / Fold change /veh RGS16 (11746705_a_at) / RFU VCAN (11755009_s_at) / Fold change /veh VCAN (11755009_s_at) / RFU RHOB (11743442_s_at) / Fold change /veh RHOB (11743442_s_at) / RFU RGS16 (11720943_a_at) / Fold change /veh RGS16 (11720943_a_at) / RFU RGS16 (11720944_at) / Fold change /veh RGS16 (11720944_at) / RFU, VPS4B / Fold change vs veh, VPS4B / RFU, CREB1 / Fold change vs veh, CREB1 / RFU, DNAJC13 / Fold change vs veh, DNAJC13 / RFU, GNAQ / Fold change vs veh, GNAQ / RFU, CDK5R1 / Fold change vs veh, CDK5R1 / RFU, ZRANB3 / Fold change vs veh, ZRANB3 / RFU, CUL4A / Fold change vs veh, CUL4A / RFU, CCNY / Fold change vs veh, CCNY / RFU, UFL1 / Fold change vs veh, UFL1 / RFU, COG3 / Fold change vs veh, COG3 / RFU, DIAPH2 / Fold change vs veh, DIAPH2 / RFU, SKA2 / Fold change vs veh, SKA2 / RFU, AFF3 / Fold change vs veh, AFF3 / RFU, LMF1 / Fold change vs veh, LMF1 / RFU, IPO11 / Fold change vs veh, IPO11 / RFU, DFFB / Fold change vs veh, DFFB / RFU, FOXP1 / Fold change vs veh, FOXP1 / RFU, CARD8 / Fold change vs veh, CARD8 / RFU, STRN3 / Fold change vs veh, STRN3 / RFU, ADK / Fold change vs veh, ADK / RFU, RASSF2 / Fold change vs veh, RASSF2 / RFU, WIPF1 / Fold change vs veh, WIPF1 / RFU, LARP1B / Fold change vs veh, LARP1B / RFU, RASA1 / Fold change vs veh, RASA1 / RFU, RB1 / Fold change vs veh, RB1 / RFU, PPFIA1 / Fold change vs veh, PPFIA1 / RFU, MAT2A / Fold change vs veh, MAT2A / RFU, CCT5 / Fold change vs veh, CCT5 / RFU, WDR92 / Fold change vs veh, WDR92 / RFU, CUX1 / Fold change vs veh, CUX1 / RFU, TTC7A / Fold change vs veh, TTC7A / RFU, TMEM135 / Fold change vs veh, TMEM135 / RFU, DEPTOR / Fold change vs veh, DEPTOR / RFU, CPM / Fold change vs veh, CPM / RFU, DNAJB6 / Fold change vs veh, DNAJB6 / RFU, CACNA2D3 / Fold change vs veh, CACNA2D3 / RFU, DTX4 / Fold change vs veh, DTX4 / RFU, TFCP2 / Fold change vs veh, TFCP2 / RFU, GMCL1 /// GMCL1P1 / Fold change vs veh, GMCL1 /// GMCL1P1 / RFU, AEBP2 / Fold change vs veh, AEBP2 / RFU, SNHG1 /// SNORD22 /// SNORD25 /// SNORD26 /// SNORD27 /// SNORD28 /// SNORD29 /// SNORD31 / Fold change vs veh, SNHG1 /// SNORD22 /// SNORD25 /// SNORD26 /// SNORD27 /// SNORD28 /// SNORD29 /// SNORD31 / Fold change (Aza/veh), C12orf56 (ProbeSet 11735607_a_at) / Fold change (ACY-1035/veh), C12orf56 (ProbeSet 11735607_a_at) / Fold change (Aza/veh), FGFR1OP (ProbeSet 11751329_s_at) / Fold change (ACY-1035/veh), FGFR1OP (ProbeSet 11751329_s_at) / Fold change (Aza/veh), VPS36 (ProbeSet 11739960_a_at) / Fold change (ACY-1035/veh), VPS36 (ProbeSet 11739960_a_at) / RFU SYPL1 (11715823_x_at) / Fold change /veh SYPL1 (11715823_x_at) / RFU IGFBP7 (11715501_s_at) / Fold change /veh IGFBP7 (11715501_s_at) / RFU REEP3 (11722064_at) / Fold change /veh REEP3 (11722064_at) / RFU IGLL1 (11728026_x_at) / Fold change /veh IGLL1 (11728026_x_at): dose or concentration left out as unconfirmed
Settings: MV-4-11 cells, 48 hours

Q: With `Nc1ncn([C@@H]2O[C@H](CO)[C@@H](O)[C@H]2O)c(=O)n1` [azacitidine] as the compound, how does the “RFU C1QL1 (11718748_at)” value read?
A: 641.97 RFU

Reference: article PMC5218480 (PLoS ONE, 2017)
